According to ChEMBL document CHEMBL5579839, “Discovery of new cyclopropane sulfonamide derivatives as EGFR inhibitors to overcome C797S-mediated resistance and EGFR double mutation” (Eur J Med Chem, 2024):

What was measured:
BaF3 [1] = experiment: Antiproliferative activity against mouse BaF3 cells harboring EGFR C797S/Del19/T790M mutant; assay type: functional, cell-based
BaF3 [2] = experiment: Antiproliferative activity against mouse BaF3 cells harboring EGFR C797S/L858R/T790M mutant; assay type: functional, cell-based
[3] = target: Epidermal growth factor receptor (Homo sapiens, UniProt P00533); experiment: Inhibition of wild-type EGFR (unknown origin)
[4] = target: Epidermal growth factor receptor (Homo sapiens, UniProt P00533, C797S/L858R/T790M); experiment: Inhibition of EGFR C797S/T790M/L858R mutant (unknown origin)
[5] = target: Epidermal growth factor receptor (Homo sapiens, UniProt P00533, L858R/T790M); experiment: Inhibition of EGFR T790M/L858R mutant (unknown origin)
[6] = target: Epidermal growth factor receptor (Homo sapiens, UniProt P00533, C797S/EX19DEL/T790M); experiment: Inhibition of EGFR C797S/T790M/Del19 mutant (unknown origin)
BaF3 [7] = experiment: Inhibition of cell growth in mouse BaF3 cells harboring EGFR L858R/T790M/C797S mutant; assay type: functional, cell-based
BaF3 [8] = experiment: Inhibition of cell growth in mouse BaF3 cells harboring EGFR del19/T790M/C797S mutant; assay type: functional, cell-based
BaF3 [9] = experiment: Inhibition of cell growth in mouse BaF3 cells harboring EGFR del19/T790M/C797S mutant incubated for 72 hrs by fluorescence based assay; assay type: functional; details: BaF3, 72 h
[10] = Cytotoxicity against VEGF-stimulated human HUVEC cells; assay type: toxicity, cell-based
[11] = Cytotoxicity against human HK-2 cells; assay type: toxicity, cell-based
[12] = Cytotoxicity against human HUVEC cells; assay type: toxicity, cell-based
[13] = Cytotoxicity against human L02 cells; assay type: toxicity, cell-based
[14] = Cytotoxicity against human HaCaT cells; assay type: toxicity, cell-based
BaF3 [15] = experiment: Inhibition of cell proliferation in mouse BaF3 cells harboring EGFR L858R/T790M mutant incubated for 72 hrs by MTS assay; assay type: functional, cell-based; details: BaF3, 72 h
[16] = Toxicity in nude mouse xenografted with human NCI-H1975 cells assessed as body weight loss at 25 mg/kg, po measured for 7 days; assay type: organism-based; details: in vivo, 168 h, time 7 day

Sequence of Epidermal growth factor receptor (Homo sapiens, UniProt P00533, L858R/T790M) (P00533 25-1210 T790M/L858R limits assumed): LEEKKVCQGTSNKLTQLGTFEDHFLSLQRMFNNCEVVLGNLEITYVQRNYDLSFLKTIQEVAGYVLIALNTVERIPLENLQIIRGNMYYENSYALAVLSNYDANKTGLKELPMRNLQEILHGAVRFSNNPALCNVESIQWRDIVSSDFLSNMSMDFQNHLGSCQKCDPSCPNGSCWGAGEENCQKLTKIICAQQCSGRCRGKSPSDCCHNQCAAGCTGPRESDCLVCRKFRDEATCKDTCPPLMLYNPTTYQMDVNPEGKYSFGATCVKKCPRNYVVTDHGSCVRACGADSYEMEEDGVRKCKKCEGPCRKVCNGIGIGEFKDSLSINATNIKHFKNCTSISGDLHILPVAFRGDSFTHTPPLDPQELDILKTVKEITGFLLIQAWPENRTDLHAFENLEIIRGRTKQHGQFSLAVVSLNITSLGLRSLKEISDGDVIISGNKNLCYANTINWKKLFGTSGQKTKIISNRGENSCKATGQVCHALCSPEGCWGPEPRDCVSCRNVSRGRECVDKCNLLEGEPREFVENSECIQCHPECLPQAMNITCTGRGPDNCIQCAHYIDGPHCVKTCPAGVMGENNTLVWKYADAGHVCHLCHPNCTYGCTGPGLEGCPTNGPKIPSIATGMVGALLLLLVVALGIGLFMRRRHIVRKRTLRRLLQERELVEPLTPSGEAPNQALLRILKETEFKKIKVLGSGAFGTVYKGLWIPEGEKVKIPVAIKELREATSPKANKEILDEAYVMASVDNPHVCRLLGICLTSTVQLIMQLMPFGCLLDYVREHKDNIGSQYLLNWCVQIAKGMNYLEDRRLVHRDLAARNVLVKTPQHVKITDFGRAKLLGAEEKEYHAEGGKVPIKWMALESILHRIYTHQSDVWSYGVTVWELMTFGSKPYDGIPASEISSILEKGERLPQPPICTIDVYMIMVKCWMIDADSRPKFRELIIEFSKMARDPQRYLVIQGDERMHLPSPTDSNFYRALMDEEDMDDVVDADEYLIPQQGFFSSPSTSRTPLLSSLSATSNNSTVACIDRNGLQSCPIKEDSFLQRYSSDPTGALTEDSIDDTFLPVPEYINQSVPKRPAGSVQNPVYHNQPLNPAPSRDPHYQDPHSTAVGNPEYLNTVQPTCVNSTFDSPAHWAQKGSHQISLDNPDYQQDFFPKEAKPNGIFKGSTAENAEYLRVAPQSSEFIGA
Sequence of Epidermal growth factor receptor (Homo sapiens, UniProt P00533, C797S/L858R/T790M) (P00533 25-1210 T790M/C797S/L858R limits assumed): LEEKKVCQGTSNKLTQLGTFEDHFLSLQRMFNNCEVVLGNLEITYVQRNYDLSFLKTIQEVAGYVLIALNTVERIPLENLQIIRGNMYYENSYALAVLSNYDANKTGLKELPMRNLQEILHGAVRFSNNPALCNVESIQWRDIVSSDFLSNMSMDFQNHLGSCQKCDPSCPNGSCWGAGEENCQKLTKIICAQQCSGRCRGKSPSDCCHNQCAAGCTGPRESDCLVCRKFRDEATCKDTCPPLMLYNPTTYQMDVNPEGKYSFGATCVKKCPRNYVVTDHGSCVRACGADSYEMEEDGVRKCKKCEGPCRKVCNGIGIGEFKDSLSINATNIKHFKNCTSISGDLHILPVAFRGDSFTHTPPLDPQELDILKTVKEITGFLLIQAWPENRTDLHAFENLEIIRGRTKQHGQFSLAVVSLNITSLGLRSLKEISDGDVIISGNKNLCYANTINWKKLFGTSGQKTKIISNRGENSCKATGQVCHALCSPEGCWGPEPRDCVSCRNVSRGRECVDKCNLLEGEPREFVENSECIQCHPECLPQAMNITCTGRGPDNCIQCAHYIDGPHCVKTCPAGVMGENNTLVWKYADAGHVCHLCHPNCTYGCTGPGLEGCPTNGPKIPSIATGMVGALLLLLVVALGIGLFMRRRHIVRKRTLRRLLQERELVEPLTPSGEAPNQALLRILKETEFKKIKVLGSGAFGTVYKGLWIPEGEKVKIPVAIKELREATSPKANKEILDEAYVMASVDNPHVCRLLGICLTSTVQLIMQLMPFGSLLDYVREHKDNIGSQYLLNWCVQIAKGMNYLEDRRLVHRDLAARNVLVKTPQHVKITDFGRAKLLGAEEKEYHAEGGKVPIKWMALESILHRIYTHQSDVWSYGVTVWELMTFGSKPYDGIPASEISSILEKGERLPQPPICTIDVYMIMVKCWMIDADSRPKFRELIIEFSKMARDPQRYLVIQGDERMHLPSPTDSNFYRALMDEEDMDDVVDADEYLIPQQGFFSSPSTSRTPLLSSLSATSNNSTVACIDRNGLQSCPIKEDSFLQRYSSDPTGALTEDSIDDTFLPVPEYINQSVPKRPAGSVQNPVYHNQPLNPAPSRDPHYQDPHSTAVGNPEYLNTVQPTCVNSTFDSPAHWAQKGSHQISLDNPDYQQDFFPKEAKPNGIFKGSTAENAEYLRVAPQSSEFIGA
Sequence of Epidermal growth factor receptor (Homo sapiens, UniProt P00533) (P00533 whole entry): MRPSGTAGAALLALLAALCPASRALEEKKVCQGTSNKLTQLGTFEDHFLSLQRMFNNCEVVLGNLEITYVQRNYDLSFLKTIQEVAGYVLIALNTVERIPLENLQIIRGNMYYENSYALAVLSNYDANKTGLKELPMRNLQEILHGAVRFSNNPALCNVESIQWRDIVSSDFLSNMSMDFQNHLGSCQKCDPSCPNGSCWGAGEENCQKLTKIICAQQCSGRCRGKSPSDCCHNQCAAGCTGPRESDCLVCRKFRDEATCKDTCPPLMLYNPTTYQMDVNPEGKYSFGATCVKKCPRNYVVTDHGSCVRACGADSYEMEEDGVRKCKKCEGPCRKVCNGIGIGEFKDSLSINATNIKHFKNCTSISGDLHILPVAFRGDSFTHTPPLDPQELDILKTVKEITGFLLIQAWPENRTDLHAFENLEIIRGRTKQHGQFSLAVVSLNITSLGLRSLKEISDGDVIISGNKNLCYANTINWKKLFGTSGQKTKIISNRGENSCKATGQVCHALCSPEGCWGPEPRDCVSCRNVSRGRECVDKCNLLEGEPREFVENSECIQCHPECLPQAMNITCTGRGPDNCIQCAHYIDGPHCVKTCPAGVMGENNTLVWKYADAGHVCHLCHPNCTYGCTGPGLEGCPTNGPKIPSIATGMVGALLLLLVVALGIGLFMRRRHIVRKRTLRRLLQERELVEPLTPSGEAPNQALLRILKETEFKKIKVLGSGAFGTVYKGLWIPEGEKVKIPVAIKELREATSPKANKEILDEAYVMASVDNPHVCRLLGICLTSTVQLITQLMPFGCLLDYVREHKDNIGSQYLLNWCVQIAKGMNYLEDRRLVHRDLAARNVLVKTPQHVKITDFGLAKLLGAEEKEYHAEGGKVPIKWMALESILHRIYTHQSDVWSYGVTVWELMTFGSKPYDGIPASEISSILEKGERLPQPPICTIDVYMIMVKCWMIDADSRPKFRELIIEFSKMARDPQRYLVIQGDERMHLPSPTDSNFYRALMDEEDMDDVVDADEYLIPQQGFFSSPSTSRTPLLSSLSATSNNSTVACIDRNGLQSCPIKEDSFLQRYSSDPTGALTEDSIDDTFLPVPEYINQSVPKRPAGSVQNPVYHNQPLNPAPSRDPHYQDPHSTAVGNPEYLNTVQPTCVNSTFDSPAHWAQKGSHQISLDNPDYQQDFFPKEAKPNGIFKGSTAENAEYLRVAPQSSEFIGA
Sequence of Epidermal growth factor receptor (Homo sapiens, UniProt P00533, C797S/EX19DEL/T790M) (P00533 whole entry, looked up, stated change not applied): as the sequence (P00533 whole entry) above

| IC50 (BaF3 [1]) | IC50 (BaF3 [2]) | Compound | other results |
| --- | --- | --- | --- |
| 712 nM | 723 nM | CN1CCCN(c2ccc(Nc3ncc(Cl)c(Nc4ccccc4NS(=O)(=O)C4CC4)n3)cc2NS(C)(=O)=O)CC1 |  |
| 198 nM | 185 nM | Cn1cnc2ccc(Nc3ncc(Cl)c(Nc4ccccc4NS(=O)(=O)C4CC4)n3)cc21 |  |
| 1 nM | 2 nM | Cc1cc(Nc2ncc(Cl)c(Nc3ccccc3NS(=O)(=O)C3CC3)n2)ccc1N1CCC(N(C)C)CC1 | IC50 [3]: 68.7 nM; IC50 [4]: 0.37 nM; IC50 [5]: 12.6 nM; IC50 [6]: 0.29 nM |
|  |  | CN1CCN(c2ccc(Nc3ncc(Cl)c(Nc4ccccc4P(C)(C)=O)n3)cc2Br)CC1 | IC50 (BaF3 [7]): 3.1 nM; IC50 (BaF3 [8]): 2.4 nM |
| 15 nM | 17 nM | Cc1cc(Nc2ncc(Br)c(Nc3ccccc3NS(=O)(=O)C3CC3)n2)ccc1N(C)CCN(C)C |  |
| 274 nM | 284 nM | Cn1ccc2ccc(Nc3ncc(Cl)c(Nc4ccccc4NS(=O)(=O)C4CC4)n3)cc21 |  |
| 177 nM | 183 nM | Cn1ccc2c(Nc3ncc(Br)c(Nc4ccccc4NS(=O)(=O)C4CC4)n3)cccc21 |  |
| 388 nM | 324 nM | CN(C)CCn1ccc2cccc(Nc3ncc(Br)c(Nc4ccccc4NS(=O)(=O)C4CC4)n3)c21 |  |
| 185 nM | 196 nM | O=S(=O)(Nc1ccccc1Nc1nc(Nc2cccc3[nH]ccc23)ncc1Cl)C1CC1 |  |
| 159 nM | 124 nM | O=S(=O)(Nc1ccccc1Nc1nc(Nc2cccc3[nH]ccc23)ncc1Br)C1CC1 |  |
| 8 nM | 4 nM | Cc1cc(Nc2ncc(Cl)c(Nc3ccccc3NS(=O)(=O)C3CC3)n2)ccc1N1CCCN(C)CC1 |  |
| 115 nM | 103 nM | Cn1cnc2ccc(Nc3ncc(Br)c(Nc4ccccc4NS(=O)(=O)C4CC4)n3)cc21 |  |
| 8 nM | 10 nM | CN1CCCN(c2ccc(Nc3ncc(Cl)c(Nc4ccccc4NS(=O)(=O)C4CC4)n3)cc2)CC1 |  |
| 342 nM | 356 nM | CN(C)CCn1ccc2cccc(Nc3ncc(Cl)c(Nc4ccccc4NS(=O)(=O)C4CC4)n3)c21 |  |
|  |  | COc1cc(N2CCC(N3CCN(C)CC3)CC2)ccc1Nc1ncc(Cl)c(Nc2ccccc2NS(C)(=O)=O)n1 | IC50 (BaF3 [9]): 27 nM |
| 65 nM | 67 nM | COc1cc(N2CCCN(C)CC2)ccc1Nc1ncc(Br)c(Nc2ccccc2NS(=O)(=O)C2CC2)n1 |  |
| 199 nM | 211 nM | Cn1ccc2c(Nc3ncc(Cl)c(Nc4ccccc4NS(=O)(=O)C4CC4)n3)cccc21 |  |
| 79 nM | 82 nM | COc1cc(N2CCCN(C)CC2)ccc1Nc1ncc(Cl)c(Nc2ccccc2NS(=O)(=O)C2CC2)n1 |  |
| 4 nM | 3 nM | Cc1cc(Nc2ncc(Br)c(Nc3ccccc3NS(=O)(=O)C3CC3)n2)ccc1N1CCC(N(C)C)CC1 |  |
| 271 nM | 257 nM | Cn1ccc2ccc(Nc3ncc(Br)c(Nc4ccccc4NS(=O)(=O)C4CC4)n3)cc21 |  |
| 101 nM | 98 nM | COc1cc(N2CCC(N(C)C)CC2)ccc1Nc1ncc(Cl)c(Nc2ccccc2NS(=O)(=O)C2CC2)n1 |  |

| IC50 (BaF3 [1]) | IC50 (BaF3 [2]) | Compound | other results |
| --- | --- | --- | --- |
| 608 nM | 613 nM | CCS(=O)(=O)Nc1cc(Nc2ncc(Br)c(Nc3ccccc3NS(=O)(=O)C3CC3)n2)ccc1N1CCC(N(C)C)CC1 |  |
| 22 nM | 29 nM | Cc1cc(Nc2ncc(Cl)c(Nc3ccccc3NS(=O)(=O)C3CC3)n2)ccc1N(C)CCN(C)C |  |
| 24 nM | 28 nM | CN(C)CCN(C)c1ccc(Nc2ncc(Cl)c(Nc3ccccc3NS(=O)(=O)C3CC3)n2)cc1 |  |
| 635 nM | 631 nM | CCS(=O)(=O)Nc1cc(Nc2ncc(Br)c(Nc3ccccc3NS(=O)(=O)C3CC3)n2)ccc1N1CCCN(C)CC1 |  |
| 1 nM | 1 nM | Cc1cc(Nc2ncc(Br)c(Nc3ccccc3NS(=O)(=O)C3CC3)n2)ccc1N1CCCN(C)CC1 | IC50 [3]: 61.3 nM; IC50 [4]: 0.28 nM; IC50 [5]: 10.2 nM; IC50 [6]: 0.3 nM |
| 4 nM | 4 nM | CN(C)C1CCN(c2ccc(Nc3ncc(Br)c(Nc4ccccc4NS(=O)(=O)C4CC4)n3)cc2)CC1 |  |
| 191 nM | 175 nM | O=S(=O)(Nc1ccccc1Nc1nc(Nc2cccc3[nH]cnc23)ncc1Cl)C1CC1 |  |
| 351 nM | 377 nM | CN1CCCN(c2ccc(Nc3ncc(Br)c(Nc4ccccc4NS(=O)(=O)C4CC4)n3)cc2NS(=O)(=O)C2CC2)CC1 |  |
| 13 nM | 15 nM | CN(C)CCN(C)c1ccc(Nc2ncc(Br)c(Nc3ccccc3NS(=O)(=O)C3CC3)n2)cc1 |  |
| 65 nM | 71 nM | COc1cc(N2CCC(N3CCN(C)CC3)CC2)ccc1Nc1ncc(Cl)c(Nc2ccccc2P(C)(C)=O)n1 [BRIGATINIB] | IC50 [10]: 2400 nM; IC50 [11]: 2130 nM; IC50 [12]: 2170 nM; IC50 [13]: 1400 nM; IC50 [14]: 5.02 µM |
|  |  | O=C(Nc1nccs1)C(c1cc(F)ccc1O)N1Cc2ccccc2C1=O (stereo unspecified) | IC50 (BaF3 [15]): ~10 nM |
| 769 nM | 785 nM | CN(C)C1CCN(c2ccc(Nc3ncc(Br)c(Nc4ccccc4NS(=O)(=O)C4CC4)n3)cc2NS(C)(=O)=O)CC1 |  |
| 775 nM | 791 nM | CN1CCCN(c2ccc(Nc3ncc(Br)c(Nc4ccccc4NS(=O)(=O)C4CC4)n3)cc2NS(C)(=O)=O)CC1 |  |
| 682 nM | 698 nM | CCS(=O)(=O)Nc1cc(Nc2ncc(Cl)c(Nc3ccccc3NS(=O)(=O)C3CC3)n2)ccc1N1CCCN(C)CC1 |  |
| 410 nM | 398 nM | CN(C)C1CCN(c2ccc(Nc3ncc(Br)c(Nc4ccccc4NS(=O)(=O)C4CC4)n3)cc2NS(=O)(=O)C2CC2)CC1 |  |
|  |  | C=CC(=O)Nc1cc(Nc2nccc(-c3cn(C)c4ccccc34)n2)c(OC)cc1N(C)CCN(C)C [OSIMERTINIB] | IC50 [10]: 2400 nM; Activity [16]: Toxic; IC50 [11]: 2140 nM; IC50 [12]: 2400 nM; IC50 [14]: 3.36 µM |
| 75 nM | 79 nM | COc1cc(N2CCC(N(C)C)CC2)ccc1Nc1ncc(Br)c(Nc2ccccc2NS(=O)(=O)C2CC2)n1 |  |
| 11 nM | 15 nM | CN(C)C1CCN(c2ccc(Nc3ncc(Cl)c(Nc4ccccc4NS(=O)(=O)C4CC4)n3)cc2)CC1 |  |
| 407 nM | 413 nM | CN1CCCN(c2ccc(Nc3ncc(Cl)c(Nc4ccccc4NS(=O)(=O)C4CC4)n3)cc2NS(=O)(=O)C2CC2)CC1 |  |
| 795 nM | 844 nM | CN(C)C1CCN(c2ccc(Nc3ncc(Cl)c(Nc4ccccc4NS(=O)(=O)C4CC4)n3)cc2NS(C)(=O)=O)CC1 |  |
